Measurements: patent US20250296938A1, “Compounds that Interact with the Ras Superfamily for the Treatment of Cancers, Inflammatory Diseases, Rasopathies, and Fibrotic Disease” (SHY Therapeutics, LLC, priority 2018, published 2025)

tested on: MIA PaCa-2 pancreatic cancer cell line; assay: Cell proliferation assay (DAPI); assay type: cell-based; conditions: Homo sapiens, MIA PaCa-2
Procedure: Cell lines: Human NSCLC cells NCI-H1975 and NCI-H1299, and tumor-derived pancreatic cancer cell lines Panc-1, MIA-PACA2, and BxPC3, were all purchased from American Type Culture Collection and grown in complete RPMI medium (BxPC3, NCI-H1975 and NCI-H1299) or DMEM-High Glucose (Panc1 and MIA-PaCa-2), supplemented with penicillin (100 U/mL), streptomycin (100 μg/mL), and 10% heat-inactivated FBS at 37° C. in a humidified incubator with 5% CO2.
Method: Cells were plated at 2000 to 5000 cells/well density in 96-wells plate and cultured ON. Small molecules to be tested were added to the cells in the final concentration of 10 µM in the presence of 0.3% DMSO and 10% FBS, and incubated for 2-4 days at 37° C. in a humidified incubator with 5% CO2. For IC50 value determination, serial dilutions of compounds were added to cells under the same conditions.
Assay: At the end of the incubation period, cell cultures were fixed with a 50-50 mixture (v/v) acetone-methanol for 10 minutes at −20° C., followed by rehydration in PBS for 10 minutes at room temperature. DNA total content was determined by staining cells with DAPI (1 ug/ml) in PBS for 10 minutes at room temperature, followed by 3 washes with PBS. After staining, DAPI fluorescence was recorded (358 nm excitation/461 nm emission) with the 96-well plate reader Molecular Devices Spectramax M3; degree of small molecule-dependent proliferation inhibition was calculated from raw data.

Question: Cn1ccc(-c2sc3nc(-c4nccn4C)nc(NC4CCOCC4)c3c2-c2ccccc2)n1 [drawing 546] was tested. Which IC50 did it give?
Answer: > 1000 nM

Question: How did the IC50 turn out when Cn1ccc(-c2sc3nc(-c4nccn4C)nc(N4CCC5(CCOC5)C4)c3c2-c2ccccc2)n1 (centres unmarked) [drawing 551] was run?
Answer: > 1000 nM

Question: How did the IC50 turn out when COC1CCN(c2nc(-c3nccn3C)nc3sc(-c4ccn(C)n4)c(-c4ccccc4)c23)CC1 [drawing 552] was run?
Answer: > 1000 nM

Question: Which IC50 does the source give for COCCCNc1nc(-c2nccn2C)nc2sc(-c3ccn(C)n3)c(-c3ccc(OC)cc3)c12 [drawing 553] here?
Answer: > 1000 nM

Question: With COCC(C)Nc1nc(-c2nccn2C)nc2sc(-c3ccn(C)n3)c(-c3ccc(OC)cc3)c12 (centres unmarked) [drawing 554] as the compound, how does the IC50 read?
Answer: > 1000 nM

Question: Which IC50 does the source give for COc1ccc(-c2c(-c3ccn(C)n3)sc3nc(-c4nccn4C)nc(N4CCC(OC)C4)c23)cc1 (centres unmarked) [drawing 555] here?
Answer: > 1000 nM

Question: For COc1cccc(-c2sc3nc(-c4nccn4C)nc(N4CCC(OC)C4)c3c2-c2cscn2)c1 (centres unmarked) [drawing 559], which IC50 is on record?
Answer: > 1000 nM

Question: For COCCNc1nc(-c2nccn2C)nc2sc(-c3cc(OC)ccc3Cl)c(-c3ccc(OC)cc3)c12 [drawing 563], which IC50 is on record?
Answer: > 1000 nM

Question: How did the IC50 turn out when COCCNc1nc(-c2nccn2C)nc2sc(-c3cc(OC)ccc3Cl)c(-c3ccccc3)c12 [drawing 568] was run?
Answer: > 1000 nM

same assay, conditions: Homo sapiens; 10 μM, 2-4 days, MIA PaCa-2; read-out: % Inhibition of cell proliferation, MIA PaCa-2 % inh

Question: With Cn1ccc(-c2sc3nc(-c4nccn4C)nc(NC4CCOCC4)c3c2-c2ccccc2)n1 [drawing 546] as the compound, how does the inhibition at 10 µM read?
Answer: 1 to 25%

Question: How did the inhibition at 10 µM turn out when Cn1ccc(-c2sc3nc(-c4nccn4C)nc(N4CCC5(CCOC5)C4)c3c2-c2ccccc2)n1 (centres unmarked) [drawing 551] was run?
Answer: 26 to 50%

Question: With COC1CCN(c2nc(-c3nccn3C)nc3sc(-c4ccn(C)n4)c(-c4ccccc4)c23)CC1 [drawing 552] as the compound, how does the inhibition at 10 µM read?
Answer: 76 to 100%

Question: COCCCNc1nc(-c2nccn2C)nc2sc(-c3ccn(C)n3)c(-c3ccc(OC)cc3)c12 [drawing 553] was tested. Which inhibition at 10 µM did it give?
Answer: 76 to 100%

Question: How did the inhibition at 10 µM turn out when COCC(C)Nc1nc(-c2nccn2C)nc2sc(-c3ccn(C)n3)c(-c3ccc(OC)cc3)c12 (centres unmarked) [drawing 554] was run?
Answer: 76 to 100%

Question: For COc1ccc(-c2c(-c3ccn(C)n3)sc3nc(-c4nccn4C)nc(N4CCC(OC)C4)c23)cc1 (centres unmarked) [drawing 555], which inhibition at 10 µM is on record?
Answer: 76 to 100%

Question: Which inhibition at 10 µM does the source give for COC1CCN(c2nc(-c3nccn3C)nc3sc(-c4ccccc4Cl)c(-c4cscn4)c23)C1 (centres unmarked) [drawing 557] here?
Answer: 76 to 100%

Question: For COc1cccc(-c2sc3nc(-c4nccn4C)nc(N4CCC(OC)C4)c3c2-c2cscn2)c1 (centres unmarked) [drawing 559], which inhibition at 10 µM is on record?
Answer: 76 to 100%

Question: How did the inhibition at 10 µM turn out when COCCNc1nc(-c2nccn2C)nc2sc(-c3cc(OC)ccc3Cl)c(-c3ccc(OC)cc3)c12 [drawing 563] was run?
Answer: 76 to 100%

Question: With COCCNc1nc(-c2cn(C)cn2)nc2sc(-c3cccc(OC)c3Cl)c(-c3ccc(OC)cc3)c12 [drawing 565] as the compound, how does the inhibition at 10 µM read?
Answer: 76 to 100%

Question: How did the inhibition at 10 µM turn out when COCCNc1nc(-c2cn(C)cn2)nc2sc(-c3cc(OC)ccc3Cl)c(-c3ccc(OC)cc3)c12 [drawing 566] was run?
Answer: 76 to 100%

Question: How did the inhibition at 10 µM turn out when COCCNc1nc(-c2nccn2C)nc2sc(-c3cc(OC)ccc3Cl)c(-c3ccccc3)c12 [drawing 568] was run?
Answer: 76 to 100%

Question: COc1cc(-c2sc3nc(-c4nccn4C)nc(N4CCC(OC)C4)c3c2-c2ccccc2)ccn1 (centres unmarked) [drawing 569] was tested. Which inhibition at 10 µM did it give?
Answer: 76 to 100%

Question: Which inhibition at 10 µM does the source give for COC1CCN(c2nc(-c3nccn3C)nc3sc(-c4ccnn4C)c(-c4ccccc4)c23)C1 (centres unmarked) [drawing 570] here?
Answer: 26 to 50%

Question: COC1CCN(c2nc(-c3nccn3C)nc3sc(-c4cccnc4)c(-c4ccccc4)c23)C1 (centres unmarked) [drawing 571] was tested. Which inhibition at 10 µM did it give?
Answer: 76 to 100%

Question: With COc1ccc(-c2sc3nc(-c4nccn4C)nc(N4CCC(OC)C4)c3c2-c2ccccc2)cn1 (centres unmarked) [drawing 572] as the compound, how does the inhibition at 10 µM read?
Answer: 76 to 100%

Question: With COc1ncccc1-c1sc2nc(-c3nccn3C)nc(N3CCC(OC)C3)c2c1-c1ccccc1 (centres unmarked) [drawing 573] as the compound, how does the inhibition at 10 µM read?
Answer: 76 to 100%

Question: With COC1CCN(c2nc(-c3nccn3C)nc3sc(-c4cnc(C5CC5)o4)c(-c4ccccc4)c23)C1 (centres unmarked) [drawing 574] as the compound, how does the inhibition at 10 µM read?
Answer: 76 to 100%

Question: For COCCn1cc(-c2sc3nc(-c4nccn4C)nc(N4CCC(OC)C4)c3c2-c2ccccc2)cn1 (centres unmarked) [drawing 575], which inhibition at 10 µM is on record?
Answer: 76 to 100%

Question: For COC1CCN(c2nc(-c3nccn3C)nc3sc(-c4ccncc4C)c(-c4ccccc4)c23)C1 (centres unmarked) [drawing 576], which inhibition at 10 µM is on record?
Answer: 76 to 100%

Question: For COC1CCN(c2nc(-c3nccn3C)nc3sc(-c4cnn(C)c4)c(-c4ccccc4)c23)C1 (centres unmarked) [drawing 577], which inhibition at 10 µM is on record?
Answer: 76 to 100%

Question: Which inhibition at 10 µM does the source give for COC1CCN(c2nc(-c3nccn3C)nc3sc(-c4ccc(CO)cc4)c(-c4ccccc4)c23)C1 (centres unmarked) [drawing 578] here?
Answer: 76 to 100%

Question: COC1CCN(c2nc(-c3nccn3C)nc3sc(-c4ccc(N)nc4C)c(-c4ccccc4)c23)C1 (centres unmarked) [drawing 579] was tested. Which inhibition at 10 µM did it give?
Answer: 76 to 100%

Question: Which inhibition at 10 µM does the source give for COC1CCN(c2nc(-c3nccn3C)nc3sc(-c4ccccc4CO)c(-c4ccccc4)c23)C1 (centres unmarked) [drawing 580] here?
Answer: 76 to 100%

Question: How did the inhibition at 10 µM turn out when COc1nscc1-c1sc2nc(-c3nccn3C)nc(N3CCC(OC)C3)c2c1-c1ccccc1 (centres unmarked) [drawing 581] was run?
Answer: 76 to 100%

Question: For COC1CCN(c2nc(-c3nccn3C)nc3sc(-c4ccnc(N(C)C)c4)c(-c4ccccc4)c23)C1 (centres unmarked) [drawing 582], which inhibition at 10 µM is on record?
Answer: 76 to 100%

Question: For COC1CCN(c2nc(-c3nccn3C)nc3sc(Br)c(-c4ccccc4)c23)C1 (centres unmarked) [drawing 583], which inhibition at 10 µM is on record?
Answer: 76 to 100%

Question: COc1ccc(-c2c(-c3cccc(OC)c3F)sc3nc(-c4nccn4C)nc(N4CCC(OC)C4)c23)cc1 (centres unmarked) [drawing 584] was tested. Which inhibition at 10 µM did it give?
Answer: 76 to 100%

Question: With COCC1CN(c2nc(-c3nccn3C)nc3sc(-c4cccc(OC)c4F)c(-c4ccc(OC)cc4)c23)C1 [drawing 585] as the compound, how does the inhibition at 10 µM read?
Answer: 76 to 100%

Question: How did the inhibition at 10 µM turn out when COc1cccc(-c2sc3nc(-c4nccn4C)nc(N4CCC(OC)C4)c3c2-c2ccccc2)c1F (centres unmarked) [drawing 586] was run?
Answer: 76 to 100%

Question: For COc1c(O)nc(-c2ccccn2)nc1Oc1cnn(C)c1 [drawing 587], which inhibition at 10 µM is on record?
Answer: 0%

Question: Which inhibition at 10 µM does the source give for COc1c(O)nc(-c2ccccn2)nc1Oc1ccc2ncccc2c1 [drawing 588] here?
Answer: 1 to 25%

Question: With COc1c(O)nc(-c2ccccn2)nc1Oc1cccnc1 [drawing 589] as the compound, how does the inhibition at 10 µM read?
Answer: 0%

Question: Which inhibition at 10 µM does the source give for COc1cccc(Oc2nc(-c3ccccn3)nc(O)c2OC)c1 [drawing 590] here?
Answer: 0%

Question: COc1ccc(Oc2nc(-c3ccccn3)nc(O)c2OC)cc1 [drawing 591] was tested. Which inhibition at 10 µM did it give?
Answer: 26 to 50%

Question: COCCc1ccc(Oc2nc(-c3ccccn3)nc(O)c2OC)cc1 [drawing 592] was tested. Which inhibition at 10 µM did it give?
Answer: 76 to 100%

Question: Which inhibition at 10 µM does the source give for COc1c(O)nc(-c2ccccn2)nc1Oc1ccccc1 [drawing 593] here?
Answer: 76 to 100%

Question: How did the inhibition at 10 µM turn out when O=C(c1nc(-c2ccccn2)nc(O)c1O)N1CCc2ccccc2C1 [drawing 594] was run?
Answer: 1 to 25%

Question: O=C(c1nc(-c2ccccn2)nc(O)c1O)N1CCOCC1 [drawing 595] was tested. Which inhibition at 10 µM did it give?
Answer: 0%

Question: With O=C(NCc1ccccc1)c1nc(-c2ccccn2)nc(O)c1O [drawing 597] as the compound, how does the inhibition at 10 µM read?
Answer: 26 to 50%

Question: With O=C(c1nc(-c2ccccn2)nc(O)c1O)N1CCCC1 [drawing 598] as the compound, how does the inhibition at 10 µM read?
Answer: 1 to 25%

Question: How did the inhibition at 10 µM turn out when O=C(NC1CCCC1)c1nc(-c2ccccn2)nc(O)c1O [drawing 599] was run?
Answer: 26 to 50%

Question: How did the inhibition at 10 µM turn out when CC(C)CN(C)C(=O)c1nc(-c2ccccn2)nc(O)c1O [drawing 600] was run?
Answer: 0%

Question: Which inhibition at 10 µM does the source give for CC(C)CNC(=O)c1nc(-c2ccccn2)nc(O)c1O [drawing 601] here?
Answer: 0%

Question: With COCCN(C)C(=O)c1nc(-c2ccccn2)nc(O)c1O [drawing 602] as the compound, how does the inhibition at 10 µM read?
Answer: 0%

Question: Which inhibition at 10 µM does the source give for O=C(NC1CCC1)c1nc(-c2ccccn2)nc(O)c1O [drawing 603] here?
Answer: 0%

Question: Which inhibition at 10 µM does the source give for CC(C)NC(=O)c1nc(-c2nccn2C)nc(O)c1O [drawing 604] here?
Answer: 26 to 50%

Question: CCN(CC)C(=O)c1nc(-c2nccn2C)nc(O)c1O [drawing 605] was tested. Which inhibition at 10 µM did it give?
Answer: 1 to 25%

Question: Cn1ccnc1-c1nc(O)c(O)c(C(=O)N2CCCC2)n1 [drawing 606] was tested. Which inhibition at 10 µM did it give?
Answer: 0%

Question: For Cn1ccnc1-c1nc(O)c(O)c(C(=O)NC2CCCC2)n1 [drawing 607], which inhibition at 10 µM is on record?
Answer: 0%

Question: For Cn1ccnc1-c1nc(O)c(O)c(C(=O)N2CCCCC2)n1 [drawing 608], which inhibition at 10 µM is on record?
Answer: 1 to 25%

Question: With Cn1ccnc1-c1nc(O)c(O)c(C(=O)NC2CCC2)n1 [drawing 609] as the compound, how does the inhibition at 10 µM read?
Answer: 1%

Question: Which inhibition at 10 µM does the source give for COC(=O)c1nc(-c2nccn2C)nc(O)c1O [drawing 610] here?
Answer: 0%

Question: COc1nc(-c2ccccn2)nc(Nc2cnn(C)c2)c1OC [drawing 611] was tested. Which inhibition at 10 µM did it give?
Answer: 1 to 25%

Question: How did the inhibition at 10 µM turn out when COCCn1cc(Nc2nc(-c3ccccn3)nc(OC)c2OC)cn1 [drawing 612] was run?
Answer: 26 to 50%

Question: For COC1CCN(c2nc(-c3nccn3C)nn3cc(-c4ccccc4)c(-c4ccccc4)c23)C1 (centres unmarked) [drawing 613], which inhibition at 10 µM is on record?
Answer: 76 to 100%
